Assay results published in patent publication US20240116985A1, “STAPLED PEPTIDES AND METHODS THEREOF” (priority 2020, published 2024).

Key:
[1] = target: T1, full-length beta-Catenin (Uniprot ID P35222) (Homo sapiens, UniProt P35222); test: Fluorescence polarization IC50 (beta-catenin / 5FAM-TCF4 10-53 competition); type: binding; conditions: fluorescence polarization; read-out: beta-Catenin FP IC50
T1 construct: 10 nM full-length beta-Catenin (Uniprot ID P35222)
T1 sequence (P35222 1-781): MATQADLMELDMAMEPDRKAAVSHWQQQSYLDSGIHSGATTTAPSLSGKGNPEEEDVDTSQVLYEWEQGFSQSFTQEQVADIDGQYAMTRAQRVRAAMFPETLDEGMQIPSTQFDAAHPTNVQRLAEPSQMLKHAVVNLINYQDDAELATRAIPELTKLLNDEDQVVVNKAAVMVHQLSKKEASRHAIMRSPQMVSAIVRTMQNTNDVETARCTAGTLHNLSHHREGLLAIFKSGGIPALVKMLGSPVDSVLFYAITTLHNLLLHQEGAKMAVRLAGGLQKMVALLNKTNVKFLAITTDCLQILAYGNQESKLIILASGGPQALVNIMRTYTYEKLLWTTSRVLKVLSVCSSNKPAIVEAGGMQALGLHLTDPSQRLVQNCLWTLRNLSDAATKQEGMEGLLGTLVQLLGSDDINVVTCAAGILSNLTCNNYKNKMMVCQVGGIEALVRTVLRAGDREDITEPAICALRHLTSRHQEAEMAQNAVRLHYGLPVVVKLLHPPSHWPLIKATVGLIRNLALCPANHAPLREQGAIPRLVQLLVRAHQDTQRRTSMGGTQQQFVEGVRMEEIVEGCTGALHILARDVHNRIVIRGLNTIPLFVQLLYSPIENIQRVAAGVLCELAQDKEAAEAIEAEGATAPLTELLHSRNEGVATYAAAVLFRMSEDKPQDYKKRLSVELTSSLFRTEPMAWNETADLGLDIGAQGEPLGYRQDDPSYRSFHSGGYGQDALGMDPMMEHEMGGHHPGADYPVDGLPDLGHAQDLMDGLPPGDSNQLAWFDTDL

[2] = target: T2, beta-catenin/TCF4 engagement (Homo sapiens, UniProt P35222); test: Nano-BRET target engagement assay (B-cat-Halo & TCF4-Luc in HEK293 cells); type: cell-based; conditions: absolute IC50; read-out: NanoBRET Abs IC50
T2 construct: expressed in transfected cells; host or cells: HEK293
T2 sequence (P35222 1-781): T1 sequence (P35222 1-781)

Row | Structure (SMILES) | IC50 [1] | IC50 [2]
1 | CCCC[C@@H]1NC(=O)[C@H](Cc2ccccc2)NC(=O)[C@H](C)NC(=O)[C@H](C)NC(=O)[C@H](CN(CC(=O)O)CC(F)(F)F)NC(=O)[C@H](CC(=O)O)NC(=O)C2(CCCC=CCCCOC(=O)N3CC[C@@](C(=O)N[C@@H](Cc4ccsc4)C(=O)N[C@@H](Cc4csc5ccccc45)C(=O)N[C@@H](CCC(N)=O)C(N)=O)(C3)NC1=O)CCCC=CC[C@]1(CCCN1C(C)=O)C(=O)N[C@@H](CC(=O)O)C(=O)N[C@@H](CC(C)(C)C)C(=O)N2 (stereo partly drawn) [I-1776, Ac-PL3-Asp-Npg-B5-Asp-TfeGA-Ala-Ala-Phe-nLeu-PyrS2-3Thi-BztA-Gln-NH2] | 17 nM | 10500 nM
2 | CCCC[C@@H]1NC(=O)[C@H](CC(=O)O)NC(=O)[C@]2(CC=CCCCC3(CCCC=CCCCOC(=O)N4CC[C@@](C(=O)N[C@@H](Cc5ccsc5)C(=O)N[C@@H](Cc5csc6ccccc56)C(=O)N[C@@H](CCC(N)=O)C(N)=O)(C4)NC(=O)[C@H](CC(C)C)NC(=O)[C@H](Cc4ccccc4)NC(=O)[C@H](C)NC(=O)[C@H](C)NC(=O)[C@H](CN(CC(=O)O)CC(F)(F)F)NC(=O)[C@H](CC(=O)O)NC3=O)NC1=O)CCCN2C(C)=O (stereo partly drawn) [I-1777, Ac-PL3-Asp-nLeu-B5-Asp-TfeGA-Ala-Ala-Phe-Leu-PyrS2-3Thi-BztA-Gln-NH2] | 8 nM | 8700 nM
3 | CC(=O)N1CCC[C@]12CC=CCCCC1(CCCC=CCCCOC(=O)N3CC[C@@](C(=O)N[C@@H](Cc4ccsc4)C(=O)N[C@@H](Cc4csc5ccccc45)C(=O)N[C@@H](CCC(N)=O)C(N)=O)(C3)NC(=O)[C@H](CC(N)=O)NC(=O)[C@H](Cc3ccccc3)NC(=O)[C@H](C)NC(=O)[C@H](C)NC(=O)[C@H](Cc3c(F)c(F)c(F)c(F)c3F)NC(=O)[C@H](CC(=O)O)NC1=O)NC(=O)[C@H](CC(C)(C)C)NC(=O)[C@H](CC(=O)O)NC2=O (stereo partly drawn) [I-1790, Ac-PL3-Asp-Npg-B5-Asp-Pff-Ala-Ala-Phe-Asn-PyrS2-3Thi-BztA-Gln-NH2] | 82 nM | 34400 nM
4 | CC(=O)N1CCC[C@]12CC=CCCCC1(CCCC=CCCCOC(=O)N3CC[C@@](C(=O)N[C@@H](Cc4ccsc4)C(=O)N[C@@H](Cc4csc5ccccc45)C(=O)N[C@@H](CCC(N)=O)C(N)=O)(C3)NC(=O)[C@H](CC(C)C)NC(=O)[C@H](Cc3ccccc3)NC(=O)[C@H](C)NC(=O)[C@H](C)NC(=O)[C@H](Cc3c[nH]cn3)NC(=O)[C@H](CC(=O)O)NC1=O)NC(=O)[C@H](CC(C)(C)C)NC(=O)[C@H](CC(=O)O)NC2=O (stereo partly drawn) [I-1796, Ac-PL3-Asp-Npg-B5-Asp-His-Ala-Ala-Phe-Leu-PyrS2-3Thi-BztA-Gln-NH2] | 22 nM | > 20000 nM
5 | CC(=O)N1CCC[C@]12CC=CCCCC1(CCCC=CCCCOC(=O)N3CC[C@@](C(=O)N[C@@H](Cc4ccsc4)C(=O)N[C@@H](Cc4csc5ccccc45)C(=O)N[C@@H](CCC(=O)N4CCC(N5CCCCC5)CC4)C(N)=O)(C3)NC(=O)[C@H](CC(C)C)NC(=O)[C@H](Cc3ccccc3)NC(=O)[C@H](C)NC(=O)[C@H](C)NC(=O)[C@H](CN(CC(=O)O)CC(F)(F)F)NC(=O)[C@H](CC(=O)O)NC1=O)NC(=O)[C@H](CC(C)(C)C)NC(=O)[C@H](CC(=O)O)NC2=O (stereo partly drawn) [I-1797, Ac-PL3-Asp-Npg-B5-Asp-TfeGA-Ala-Ala-Phe-Leu-PyrS2-3Thi-BztA-[4Pippip]GlnR-NH2] | 10 nM | 22500 nM
6 | CC(=O)N1CCC[C@]12CC=CCCCC1(CCCC=CCCCOC(=O)N3CC[C@@](C(=O)N[C@@H](Cc4ccsc4)C(=O)N[C@@H](Cc4csc5ccccc45)C(=O)N[C@@H](CCC(=O)N4CCN(CCCN(C)C)CC4)C(N)=O)(C3)NC(=O)[C@H](CC(C)C)NC(=O)[C@H](Cc3ccccc3)NC(=O)[C@H](C)NC(=O)[C@H](C)NC(=O)[C@H](CN(CC(=O)O)CC(F)(F)F)NC(=O)[C@H](CC(=O)O)NC1=O)NC(=O)[C@H](CC(C)(C)C)NC(=O)[C@H](CC(=O)O)NC2=O (stereo partly drawn) [I-1799, Ac-PL3-Asp-Npg-B5-Asp-TfeGA-Ala-Ala-Phe-Leu-PyrS2-3Thi-BztA-[Me2NPrPip]GlnR-NH2] | 8 nM | 25800 nM
7 | CC(=O)N1CCC[C@]12CC=CCCCC1(CCCC=CCCCOC(=O)N3CC[C@@](C(=O)N[C@@H](Cc4ccsc4)C(=O)N[C@@H](Cc4csc5ccccc45)C(=O)N[C@@H](CCC(=O)N4CCN(CCCN(C)C)CC4)C(N)=O)(C3)NC(=O)[C@H](CC(C)C)NC(=O)[C@H](Cc3ccccc3)NC(=O)[C@H](C)NC(=O)[C@H](C)NC(=O)[C@H](CN(CC(=O)O)CC(F)(F)F)NC(=O)[C@H](CC(=O)O)NC1=O)NC(=O)[C@H](CC(C)(C)C)NC(=O)[C@H](CC(=O)O)NC2=O (stereo partly drawn) [I-1800, Ac-PL3-Asp-Npg-B5-Asp-TfeGA-Ala-Ala-Phe-Leu-PyrS2-3Thi-BztA-[Me2NPrPip]GlnR-NH2] | 13 nM | 25200 nM

More lines, now with the values ahead:

Row | IC50 [1] | IC50 [2] | Structure (SMILES)
8 | 101 nM | > 20000 nM | CC(=O)N1CCC[C@]12CC=CCCCC1(CCCC=CCCCOC(=O)N3CC[C@@](C(=O)N[C@@H](Cc4ccsc4)C(=O)N[C@@H](Cc4csc5ccccc45)C(=O)N[C@@H](CCC(N)=O)C(N)=O)(C3)NC(=O)[C@H](CCO)NC(=O)[C@H](Cc3ccccc3)NC(=O)[C@H](C)NC(=O)[C@H](C)NC(=O)[C@H](Cc3ccc(O)cc3)NC(=O)[C@H](CC(=O)O)NC1=O)NC(=O)[C@H](CC(C)(C)C)NC(=O)[C@H](CC(=O)O)NC2=O (stereo partly drawn) [I-1783, Ac-PL3-Asp-Npg-B5-Asp-Tyr-Ala-Ala-Phe-Hse-PyrS2-3Thi-BztA-Gln-NH2]
9 | 42 nM | > 20000 nM | CC(=O)N1CCC[C@]12CC=CCCCC1(CCCC=CCCCOC(=O)N3CC[C@@](C(=O)N[C@@H](Cc4ccsc4)C(=O)N[C@@H](Cc4csc5ccccc45)C(=O)N[C@@H](CCC(N)=O)C(N)=O)(C3)NC(=O)[C@H](CCO)NC(=O)[C@H](Cc3ccccc3)NC(=O)[C@H](C)NC(=O)[C@H](C)NC(=O)[C@H](CCc3ccc(O)cc3)NC(=O)[C@H](CC(=O)O)NC1=O)NC(=O)[C@H](CC(C)(C)C)NC(=O)[C@H](CC(=O)O)NC2=O (stereo partly drawn) [I-1786, Ac-PL3-Asp-Npg-B5-Asp-hTyr-Ala-Ala-Phe-Hse-PyrS2-3Thi-BztA-Gln-NH2]
10 | 58 nM | 33900 nM | CC(=O)N1CCC[C@]12CC=CCCCC1(CCCC=CCCCOC(=O)N3CC[C@@](C(=O)N[C@@H](Cc4ccsc4)C(=O)N[C@@H](Cc4csc5ccccc45)C(=O)N[C@@H](CCC(N)=O)C(N)=O)(C3)NC(=O)[C@H](CC(N)=O)NC(=O)[C@H](Cc3ccccc3)NC(=O)[C@H](C)NC(=O)[C@H](C)NC(=O)[C@H](Cc3c[nH]c4ccccc34)NC(=O)[C@H](CC(=O)O)NC1=O)NC(=O)[C@H](CC(C)(C)C)NC(=O)[C@H](CC(=O)O)NC2=O (stereo partly drawn) [I-1788, Ac-PL3-Asp-Npg-B5-Asp-Trp-Ala-Ala-Phe-Asn-PyrS2-3Thi-BztA-Gln-NH2]
11 | 182 nM | > 20000 nM | CC(=O)N1CCC[C@]12CC=CCCCC1(CCCC=CCCCOC(=O)N3CC[C@@](C(=O)N[C@@H](Cc4ccsc4)C(=O)N[C@@H](Cc4csc5ccccc45)C(=O)N[C@@H](CCC(N)=O)C(N)=O)(C3)NC(=O)[C@H](CCO)NC(=O)[C@H](Cc3ccccc3)NC(=O)[C@H](C)NC(=O)[C@H](C)NC(=O)[C@H](Cc3c(F)c(F)c(F)c(F)c3F)NC(=O)[C@H](CC(=O)O)NC1=O)NC(=O)[C@H](CC(C)(C)C)NC(=O)[C@H](CC(=O)O)NC2=O (stereo partly drawn) [I-1791, Ac-PL3-Asp-Npg-B5-Asp-Pff-Ala-Ala-Phe-Hse-PyrS2-3Thi-BztA-Gln-NH2]
12 | 20 nM | > 20000 nM | CC(=O)N1CCC[C@]12CC=CCCCC1(CCCC=CCCCOC(=O)N3CC[C@@](C(=O)N[C@@H](Cc4ccsc4)C(=O)N[C@@H](Cc4csc5ccccc45)C(=O)N[C@@H](CCC(N)=O)C(N)=O)(C3)NC(=O)[C@H](CCO)NC(=O)[C@H](Cc3ccccc3)NC(=O)[C@H](C)NC(=O)[C@H](C)NC(=O)[C@H](Cc3c[nH]cn3)NC(=O)[C@H](CC(=O)O)NC1=O)NC(=O)[C@H](CC(C)(C)C)NC(=O)[C@H](CC(=O)O)NC2=O (stereo partly drawn) [I-1793, Ac-PL3-Asp-Npg-B5-Asp-His-Ala-Ala-Phe-Hse-PyrS2-3Thi-BztA-Gln-NH2]
13 | 52 nM | 37700 nM | CC(=O)N1CCC[C@]12CC=CCCCC1(CCCC=CCCCOC(=O)N3CC[C@@](C(=O)N[C@@H](Cc4ccsc4)C(=O)N[C@@H](Cc4csc5ccccc45)C(=O)N[C@@H](CCC(N)=O)C(N)=O)(C3)NC(=O)[C@H](CCO)NC(=O)[C@H](Cc3ccccc3)NC(=O)[C@H](C)NC(=O)[C@H](C)NC(=O)[C@H](Cc3c[nH]cn3)NC(=O)[C@H](CC(=O)O)NC1=O)NC(=O)[C@H](CC(C)(C)C)NC(=O)[C@H](CC(=O)O)NC2=O (stereo partly drawn) [I-1794, Ac-PL3-Asp-Npg-B5-Asp-His-Ala-Ala-Phe-Hse-PyrS2-3Thi-BztA-Gln-NH2]
